Laboratory results taken from patent US9765040B2, “Therapeutic agent for pain” (Astellas Pharma Inc., priority 2010, dated 2017).
pIC50: −log10 of the molar value. Read-outs that look alike come from different tables or passages of the source.

Assays:
rat recombinant 11β-HSD1 = rat recombinant 11β-HSD1 (Rattus norvegicus (Rat), UniProt P16232); test: Measurement test for rat 11β-HSD1 inhibitory activity (HTRF cortisol detection); type: biochemical; conditions: rat recombinant 11β-HSD1, 200 nM cortisone, 40 μM NADPH, pH 6.6, room temperature 1 hour
Protocol: The procedure for measuring the 11β-HSD1-inhibitory activity is as follows. The enzyme reaction and the measurement were carried out using a 384-well plate. The enzyme was prepared in accordance with Journal of Biological Chemistry, 2001, Vol. 276, p. 21343-21350. The reaction was carried out by adding a test compound at various concentrations to a reaction liquid consisting of a 5 mM phosphate buffer (pH 6.6), 200 nM cortisone, 40 μM reduced nicotinamide adenine dinucleotide phosphate (NADPH), and rat recombinant 11β-HSD1, followed by incubating at room temperature for one hour (10 μl/well). The test compound was prepared by dissolving in dimethyl sulfoxide (DMSO) such that a DMSO concentration reached 1% in the reaction liquid. After the enzyme reaction was completed, the enzyme inhibitory action was measured by detecting cortisol using a homogeneous time-resolved fluorescence (HTRF) method. Each of a d2-labeled cortisol containing 400 μM carbenoxolone and a cryptate-labeled cortisol antibody (CIS Bio International Co., Ltd.) was added at 5 μl/well, followed by incubating at room temperature for 2 hours, and then the fluorescence intensity was measured using a fluorophotometer (trade name: ARVO HTS 1420, Perkin Elmer/Wallac), and the enzyme inhibitory activity was calculated from the fluorescence intensity ratio of two wavelengths (665 nm/620 nm).
The measurement results were calculated by averaging the values of 3 wells of the same condition. The ratio when DMSO was added instead of the test compound was taken as 0% and the ratio when 11β-HSD1 was not added was taken as 100%, thereby calculating the 50% inhibition concentration of the test compound as IC50 of the compound inhibitory activity.

[1] = tested on: spinal nerve ligation model; test: Test of spinal nerve ligation model (von Frey hair test); type: in vivo, rat; conditions: read-out: Improvement rate % (dose)
Protocol: The test was carried out in accordance with Pain, 1992, Vol. 50, p. 355-363. The lumbar skin and muscle of a rat (SD, male, 5- to 6-week old) were incised under pentobarbital anesthesia and the transverse processes of lumbar L6 were removed to expose lumbar nerves. The L5 and L6 spinal nerves were ligated with silk thread and then the wound was sutured. The treatment was performed on the left side. However, in a case of a pseudo-operation, the wound was sutured without carrying out the nerve ligation.
Drug efficacy evaluation was carried out by a von Frey hair test 7 to 20 days after the operation. The withdrawal response threshold was calculated in accordance with Journal of Neuroscience Methods, 1994, Vol. 53, p. 55-63. The plantar of hindlimb was stimulated using 8 kinds of von Frey filaments (0.41 to 15.14 g), and 50% withdrawal response thresholds were determined by an up-and-down method. The test was initiated from 2.04 g of the filament, and a case where the withdrawal response of the limb was observed was taken as presence of the response.
On the previous day of the drug efficacy evaluation, the animals showing reduction in the thresholds according to a von Frey hair test were preliminarily selected and grouped such that the difference in the average values of the thresholds between the respective groups was reduced.
The test substance was suspended in a 0.5% methylcellulose solution and administered orally 2 hours before the drug efficacy evaluation. The evaluation of the test substance was carried out by determining the improvement rate of the group administered with the test substance when the threshold of the limb on the treatment side in the pseudo-operation animal group was taken as 100% and the threshold of the limb on the treatment side in an operated animal group administered with a solvent was taken as 0%.

[2] = tested on: fibromyalgia model induced by repeated administration of reserpine; test: Test of fibromyalgia model induced by repeated administration of reserpine (muscle pressure pain threshold); type: in vivo; conditions: 1 mg/kg oral, maximum among 30, 60 and 120 min after administration, normal rat = 100%, reserpine + solvent = 0%, SD rat
Protocol: The test was carried out in accordance with Pain, 2009, Vol. 146, p. 26-33. Rats (SD, male, 7 weeks old) were used.
The threshold measurement for the muscle pressure pain was carried out according to the method of Schafers et al. (Pain, 2003, Vol. 104, p. 579-588). The pressure stimulus gradually increasing up to 250 g was applied to the gastrocnemius muscle of the right hindlimb of the rat. […] The measurements were carried out in triplicate for each point of time and the average thereof was taken as a measured value.
A solvent (0.5% acetic acid/water) or reserpine at 1 mg/kg was subcutaneously administered on a dorsal subcutaneous part for 3 days once per day. The administration volume of the solvent or reserpine was taken as 1 mL per kg of a body weight of an animal. The muscle pressure pain thresholds of the respective rats were measured at 6 days after the initiation of the administration of the solvent or reserpine, and grouped such that the difference in the average values of the thresholds between the respective groups was reduced.
The drug efficacy evaluation was carried out the next day. The test substance was suspended in a 0.5% methylcellulose solution and the muscle pressure pain thresholds were measured 30, 60, and 120 minutes after oral administration. For the normal rats, drug administration was not carried out, and only the measurement of the muscle pressure pain thresholds was carried out. […] The evaluation of the test substance was carried out by determining the maximal improvement rate of the group administered with the test substance among at time points of 30, 60, and 120 minutes after the administration when the muscle pressure pain threshold of the normal rat is taken as 100% and the muscle pressure pain threshold of the rat treated with reserpine while administered with the solvent is taken as 0%.

[3] = 0.3 mg/kg oral, 2 hours before evaluation, 50% withdrawal response threshold, pseudo-operation group = 100%, operated solvent group = 0%, SD rat

Sequence of rat recombinant 11β-HSD1 (P16232 whole entry): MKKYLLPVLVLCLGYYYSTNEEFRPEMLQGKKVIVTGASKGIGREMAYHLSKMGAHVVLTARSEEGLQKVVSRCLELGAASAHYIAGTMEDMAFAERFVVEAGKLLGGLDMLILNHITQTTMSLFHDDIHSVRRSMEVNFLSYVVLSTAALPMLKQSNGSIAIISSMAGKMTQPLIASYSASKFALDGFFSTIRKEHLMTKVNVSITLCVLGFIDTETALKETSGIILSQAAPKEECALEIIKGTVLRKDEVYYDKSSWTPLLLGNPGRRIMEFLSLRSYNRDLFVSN

SMILES | pIC50 (rat recombinant 11β-HSD1) | inhibition in vivo at 0.3 mg/kg [1, 3] | inhibition in vivo at 0.3 mg/kg ([1]; Rattus norvegicus, po, 2 h) | Maximum improvement rate % (dose) [2]
CC(C)n1c(-c2ccc(C(N)=O)cc2)nnc1C(C)(C)Oc1c(F)cc(F)cc1F [Compound 9] | 7.59 | 78% | – | –
Cn1c(-c2ccc(F)cc2Br)nnc1C(C)(C)Oc1c(F)cc(F)cc1F [Compound 1] | 7.46 | 71% | – | –
Cn1c(-c2ccc(C(N)=O)cc2F)nnc1C(C)(C)Oc1c(F)cc(F)cc1F [Compound 12] | 6.74 | 54% | – | –
CC(C)n1c(-c2ccc(C(N)=O)cc2)nnc1C(C)(C)Oc1c(F)cc(Cl)cc1F [Compound 13] | 7.17 | 53% | – | –
CC(C)(Oc1ccc(F)cc1F)c1nnc(-c2ccc(C(N)=O)cc2Cl)n1C1CC1 [Compound 14] | 7.80 | 73% | – | –
Cn1c(-c2ccc(F)cc2Cl)nnc1C(C)(C)Oc1c(F)cc(F)cc1F [Compound 2] | – | – | 88% | 30 (1 mg/kg) %
CC(C)n1c(-c2ccc(C(N)=O)cc2F)nnc1C(C)(C)Oc1c(F)cc(F)cc1F [Compound 15] | – | – | 86% | 45 (1 mg/kg) %
Cl.Cn1c(-c2ccccc2Cl)nnc1C(C)(C)Oc1c(F)cc(Cl)cc1F [Compound 4] | 7.49 | 85% | – | 82 (1 mg/kg) %
CCn1c(-c2ccc(C(N)=O)cc2)nnc1C(C)(C)Oc1c(F)cc(Cl)cc1F [Compound 8] | – | – | 87% | 41 (1 mg/kg) %
Cn1c(-c2ccc(C(N)=O)cc2F)nnc1C(C)(C)Oc1c(F)cc(Cl)cc1F [Compound 10] | – | 81% | – | 65 (1 mg/kg) %

The remaining compounds from weak to strong by pIC50 (rat recombinant 11β-HSD1), led by results:

pIC50 (rat recombinant 11β-HSD1) | SMILES | inhibition in vivo at 0.3 mg/kg [1, 3] | inhibition in vivo at 0.3 mg/kg ([1]; Rattus norvegicus, po, 2 h) | Maximum improvement rate % (dose) [2]
6.49 | Cn1c(-c2ccccc2F)nnc1C(C)(C)Oc1c(F)cc(F)cc1F [Compound 6] | 52% | – | –
6.58 | Cn1c(-c2ccc(F)cc2Cl)nnc1C(C)(C)Oc1c(F)cc(Cl)cc1F [Compound 5] | 65% | – | –
7.19 | CC(C)(Oc1ccc(F)cc1F)c1nnc(-c2ccc(C(N)=O)cc2F)n1C1CC1 [Compound 11] | 82% | – | 83 (1 mg/kg) %
7.49 | Cn1c(-c2c[nH]nc2C(F)(F)F)nnc1C(C)(C)Oc1c(F)cc(F)cc1F [Compound 7] | 73% | – | –
7.62 | Cn1c(-c2ccccc2Cl)nnc1C(C)(C)Oc1c(F)cc(F)cc1F [Compound 3] | 62% | – | –
